ED50 and IC50 data for four compounds are collected here from patent US5753675A, “Quinoline analogs of mevalonolactone and derivatives thereof” (Novartis Pharmaceuticals Corporation, priority 1990, dated 1998).

pIC50: −log10 of the molar value. Like-named read-outs stand apart in the source and are kept apart here.

One may read the ED50 as the midpoint of the dose-response relation.

Experiment [1] has as its system 3β-hydroxysterol synthesis (cholesterol biosynthesis). Briefly: Test B. In Vivo Cholesterol Biosynthesis Inhibition Test. As to conditions: Rattus norvegicus, ip, 1 h, read-out: ED50 (inhibition of 3β-hydroxysterol synthesis). The protocol: Test B. In Vivo Cholesterol Biosynthesis Inhibition Test: In vivo studies utilize male Wistar Royal Hart rats weighing 150±20 g. which have been kept for 7-10 days on an altered light cycle (6:30 A.M.-6:30 P.M. dark) housed two per cage and fed powdered Purina Rat Chow and water ad libitum. Three hours before the diurnal maximum of cholesterol synthesis at mid-dark, the rats are administered the test substance (e.g., 0.01-20 mg./kg. body weight) dissolved or as a suspension in 0.5% carboxymethyl-cellulose in a volume of 1 ml./100 g. body weight. Controls receive vehicle alone. One hour after receiving the test substance, the rats are injected intraperitoneally with about 25 μCi/100 g. body weight of sodium [1-^14 C]acetate 1-3 mCi/mmol. Two hours after mid-dark, blood samples are obtained under sodium hexobarbital anesthesia, and the serum is separated by centrifugation. […] The [^14 C]digitonides are then counted by liquid scintillation spectrometry. […] Inhibition of 3β-hydroxysterol synthesis is calculated from the reduction in the nCi of 3β-hydroxysterols formed from test groups compared to controls.

Another experiment has as its target T1, HMG-CoA reductase (Rattus norvegicus, UniProt P51639).
T1 construct: rat liver microsomal suspensions, freshly prepared from male Sprague-Dawley rats; from tissue; host or cells: rat liver microsomes (male Sprague-Dawley, 150-225 g)
T1 sequence (P51639 1-887): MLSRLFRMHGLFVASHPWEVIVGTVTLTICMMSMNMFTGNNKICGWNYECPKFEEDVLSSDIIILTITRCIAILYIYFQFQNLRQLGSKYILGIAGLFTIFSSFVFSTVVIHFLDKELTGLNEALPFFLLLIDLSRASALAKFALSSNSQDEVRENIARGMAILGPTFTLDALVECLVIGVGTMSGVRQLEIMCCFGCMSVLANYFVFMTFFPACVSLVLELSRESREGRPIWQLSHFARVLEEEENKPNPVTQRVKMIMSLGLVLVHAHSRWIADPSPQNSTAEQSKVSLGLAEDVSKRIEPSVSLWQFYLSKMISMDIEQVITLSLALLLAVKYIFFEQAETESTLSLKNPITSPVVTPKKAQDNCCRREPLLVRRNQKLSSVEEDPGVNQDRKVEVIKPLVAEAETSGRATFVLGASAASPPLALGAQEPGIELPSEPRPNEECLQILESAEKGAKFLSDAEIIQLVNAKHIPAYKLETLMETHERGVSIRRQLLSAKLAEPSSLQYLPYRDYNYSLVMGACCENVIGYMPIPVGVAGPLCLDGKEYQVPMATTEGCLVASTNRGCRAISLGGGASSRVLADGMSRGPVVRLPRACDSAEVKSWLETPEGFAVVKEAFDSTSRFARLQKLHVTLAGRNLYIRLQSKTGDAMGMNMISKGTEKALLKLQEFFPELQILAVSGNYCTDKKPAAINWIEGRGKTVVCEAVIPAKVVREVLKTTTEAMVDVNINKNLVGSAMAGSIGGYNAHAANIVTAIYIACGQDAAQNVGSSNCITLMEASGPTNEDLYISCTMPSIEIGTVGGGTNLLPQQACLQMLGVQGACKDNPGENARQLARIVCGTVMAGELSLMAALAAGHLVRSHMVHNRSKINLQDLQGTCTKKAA
Nature of the experiment: Test A. In Vitro Microsomal Assay of HMG-CoA Reductase Inhibition. The experiment is classed as biochemical. As to conditions: rat liver microsomal suspensions, [14C]HMG-CoA substrate; test concentrations 0.05-1000 μmolar; read-out: IC50 (concentration calculated to produce a 50% inhibition of HMG-CoA reductase activity). As to the method: Test A. In Vitro Microsomal Assay of HMG-CoA Reductase Inhibition:
200 μl. aliquots (1.08-1.50 mg./ml.) of rat liver microsomal suspensions, freshly prepared from male Sprague-Dawley rats (150-225 g. body weight), in Buffer A with 10 mmol. dithiothreitol are incubated with 10 μl. of a solution of the test substance in dimethylacetamide and assayed for HMG-CoA reductase activity as described in Ackerman et al., J. Lipid Res. 18, 408-413 (1977). In the assay the microsomes are the source of the HMG-CoA reductase enzyme which catalyzes the reduction of HMG-CoA to mevalonate. The assay employs a chloroform extraction or a Dowex® 1X8 (200-400 mesh, formate form) ion exchange column to separate the product, [^14 C]mevalonolactone, formed by the HMG-CoA reductase reduction of the substrate, [^14 C]HMG-CoA. [^3 H]mevalonolactone is added as an internal reference. Inhibition of HMG-CoA reductase is calculated from the decrease in specific activity ([^14 C/^3 H]mevalonate) of test groups compared to controls.
IC50 is the concentration of the test substance in the assay system calculated to produce a 50% inhibition of HMG-CoA reductase activity. The tests are run at concentrations of test substance between 0.05 and 1000 μmolar.

[2] abbreviates: male Wistar Royal Hart rats, in 0.5% carboxymethyl-cellulose, sodium [1-14C]acetate i.p. one hour after test substance, serum.

Take `CCOC(=O)C[C@H](O)C[C@H](O)/C=C/c1c(C(C)C)nc2ccccc2c1-c1ccc(F)cc1` (relative stereo) [Example 3C]: the ED50 in experiment [1] (setting [2]) amounted to 0.49 mg/kg. Moreover, at HMG-CoA reductase, the pIC50 is 6.39.
With `CC[C@H](C)C(=O)O[C@H]1CCC=C2C=C[C@H](C)[C@H](CC[C@@H]3C[C@@H](O)CC(=O)O3)[C@H]21` [Compactin, reference compound], the ED50 in experiment [1] (setting [2]) worked out at 3.5 mg/kg.
For `CC(C)c1nc2ccccc2c(-c2ccc(F)cc2)c1/C=C/C(O)CC(O)CC(=O)O` (stereo not drawn) [Example 4], the ED50 in experiment [1] (setting [2]) was > 1 mg/kg. Further, the pIC50 on HMG-CoA reductase is 6.28.
As to `CC[C@H](C)C(=O)O[C@H]1C[C@@H](C)C=C2C=C[C@H](C)[C@H](CC[C@@H]3C[C@@H](O)CC(=O)O3)[C@H]21` [Mevinolin, reference compound], the ED50 in experiment [1] is 0.41 mg/kg.
